Assay results reported in patent publication US20240317712A1, “[…] DERIVATIVES AS INHIBITORS OF […]-PEPTIDE CYCLOTRANSFERASE AND […]-PEPTIDE CYCLOTRANSFERASE LIKE PROTEIN” (Boehringer Ingelheim International GmbH, priority 2023, published 2024).

Legend:
QPCTL = target: T1, QPCTL (Homo sapiens, UniProt Q9NXS2); experiment: Assay A: biochemical QPCTL activity assay (MALDI-TOF MS, CD47 peptide substrate); conditions: 0.5 nM enzyme, 10 μM CD47 peptide substrate; read-out: Inhibition of QPCTL: IC50
T1 construct: made in house
T1 sequence (Q9NXS2 whole entry): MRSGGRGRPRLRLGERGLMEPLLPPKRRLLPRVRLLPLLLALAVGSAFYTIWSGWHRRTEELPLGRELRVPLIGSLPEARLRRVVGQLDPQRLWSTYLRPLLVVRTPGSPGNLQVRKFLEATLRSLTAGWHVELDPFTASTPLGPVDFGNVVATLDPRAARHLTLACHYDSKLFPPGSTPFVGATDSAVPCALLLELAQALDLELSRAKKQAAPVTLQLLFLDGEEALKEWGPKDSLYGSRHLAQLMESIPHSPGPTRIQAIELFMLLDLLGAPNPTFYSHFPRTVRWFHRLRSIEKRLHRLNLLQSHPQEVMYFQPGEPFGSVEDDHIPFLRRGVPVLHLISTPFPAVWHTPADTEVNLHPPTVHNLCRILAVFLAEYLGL
Protocol: (§1) QPCT or QPCTL dependent conversion of N-terminal glutamine to pyroglutamate of CD47 was monitored via MALDI-TOF MS. Test compounds were dissolved in 100% DMSO and serially diluted into clear 1,536-well microtiter plates. Enzymatic reactions were set up in assay buffer containing 20 mM Tris pH 7.5, 0.1 mM TCEP, 0.01% BSA, and 0.001% Tween20. […] The plates were incubated for 10 min in a humidified incubator at 24° C. Subsequently, 2.5 µL of CD47 peptide substrate surrogate (^19[…]^33) was added to each well (final concentration: 10 μM for QPCTL/20 μM for QPCT). The plates were mixed for 30 sec at 1,000 rpm and subsequently incubated for 40 min in a humidified incubator at 24° C. […] The plates were sealed with an adhesive foil, mixed for 30 s at 1,000 rpm and stored at room temperature until preparation of the MALDI target plates. MALDI target plates were prepared as described previously. […] QPCT or QPCTL activity was monitored by calculating the ratio between product and internal standard signals followed by normalization to high (100% activity) and low (0% activity) controls. Determination of compound potencies was obtained by fitting the dose-response data to a four-parameter logistical equation.

QPCT = target: T2, QPCT (Homo sapiens, UniProt Q16769); experiment: Assay A: biochemical QPCT activity assay (MALDI-TOF MS, CD47 peptide substrate); conditions: 0.5 nM enzyme, 20 μM CD47 peptide substrate; read-out: Inhibition of QPCT: IC50
T2 construct: purchased Origine (so in the source)
T2 sequence (Q16769 29-361): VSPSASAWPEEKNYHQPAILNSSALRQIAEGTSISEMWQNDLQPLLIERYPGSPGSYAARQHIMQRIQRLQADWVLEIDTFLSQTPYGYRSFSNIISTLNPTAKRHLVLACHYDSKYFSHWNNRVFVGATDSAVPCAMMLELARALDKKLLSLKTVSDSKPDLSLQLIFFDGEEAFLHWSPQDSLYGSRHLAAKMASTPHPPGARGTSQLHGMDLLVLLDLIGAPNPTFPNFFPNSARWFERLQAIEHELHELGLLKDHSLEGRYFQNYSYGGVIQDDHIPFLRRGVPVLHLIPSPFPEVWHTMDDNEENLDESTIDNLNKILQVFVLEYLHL
Protocol: as §1

[1] = system: SIRPα signalling induced by Raji cells; experiment: Assay B: SIRPα signalling assay using Raji cells; format: cell-based; conditions: Homo sapiens, 48 h compound incubation, Jurkat PathHunter SIRPaV1 reporter cells, read-out: Inhibition of SIRPα signalling induced by Raji cells: IC50
Protocol: (§2) Two cell types are independently used: the Raji cell line (lymphoblast-like human cell line derived from B lymphocytes from a Burkitt's lymphoma patient in 1963) and A549 cells (adenocarcinoma human alveolar basal epithelial cells).
(§3) Test compounds were dissolved in 100% DMSO and serially diluted into a white 384-well microtiter cell culture plate (PerkinElmer #60076780 in case of Raji assay; PDL-coated plates Greiner #781945 in case of A549 assay), 5000 Raji cells (ATCC #CC86) or 5000 A549 cells (ATCC #CCL-185) in Assay Complete Cell Plating reagent 30 (DiscoverX 93-0563R30B) were added per well. The assay plate was incubated for 48 h at 37° C., 95% humidity and 5% CO2. 15000 reporter cells (Jurkat PathHunter SIRPaV1, DiscoverX #93-1135C19) were added to each well, and the plate was incubated for 5 h at 37° C., 95% humidity and 5% CO2. Bioassay reagent 1 of the PathHunter Bioassay detection kit (DiscoverX 93-0001) was added to each well of the plate using a multichannel pipette followed by a 15 min incubation at room temperature. Afterwards bioassay reagent 2 was added followed by 60 min incubation at room temperature (incubation in the dark). The analysis of the data was performed using the luminescence signal generated by beta-galactosidase in the PathHunter reporter cell line. The luminescence measurement was done using a Pherastar Multi-Mode Reader. Dose-response curves & IC50 data were calculated with 4-parameter sigmoidal dose response formula.

[2] = system: SIRPα signalling induced by A549 cells; experiment: Assay B: SIRPα signalling assay using A549 cells; format: cell-based; conditions: Homo sapiens, 48 h compound incubation, Jurkat PathHunter SIRPaV1 reporter cells, read-out: Inhibition of SIRPα signalling induced by A549 cells: IC50
Protocol: as §2, §3

[3] = Assay C: Permeability in CACO-2 cells; format: in vitro ADME; conditions: human, pH 7.2; for efflux ratio: Caco-2, permeability B−A/permeability A−B; for Papp A→B: Caco-2, apical to basolateral
Protocol: Caco-2 cells (1-2×10^5 cells/1 cm^2 area) are seeded on filter inserts (Costar transwell polycarbonate or PET filters, 0.4 μm pore size) and cultured (DMEM) for 10 to 25 days. Compounds are dissolved in appropriate solvent (like DMSO, 1-20 mM stock solutions). […] The transport solution (TL) is applied to the apical or basolateral donor side for measuring A-B or B-A permeability (3 filter replicates), respectively. Samples are collected at the start and end of experiment from the donor and at various time intervals for up to 2 hours also from the receiver side for concentration measurement by HPLC-MS/MS or scintillation counting. Sampled receiver volumes are replaced with fresh receiver solution.
Efflux ratio (ER)=permeability B−A/permeability A−B

| SMILES | IC50 (QPCTL) [µM] | IC50 (QPCT) [µM] | IC50 [1] [µM] | IC50 [2] [µM] | efflux ratio [3] | Papp A→B [3] [nm/s] |
| --- | --- | --- | --- | --- | --- | --- |
| Cn1cnnc1C1CCN(c2c(C#N)cc(C(F)(F)F)cc2-c2ccc(F)nc2)CC1 [Example 3] | 0.003 | 0.012 | 0.019 | 0.012 | 10.4 | 90 |
| Cn1cnnc1C1(F)CCN(c2c(C#N)cc(F)cc2-c2ccc(F)nc2)CC1 [Example 6] | 0.003 | 0.004 | 0.047 | 0.016 | 1.6 | 440 |
| COC(=O)c1cc(C#N)c(N2CCC(c3nncn3C)CC2)c(-c2ccc(F)nc2)c1 [Example 15] | 0.003 | 0.012 | 0.312 | 0.218 | 9.2 | 53 |
| Cn1cnnc1C1CCN(c2c(C#N)cc(Cl)cc2-c2ccc(F)nc2)CC1 [Example 16] | 0.002 | 0.008 | 0.03 | 0.018 | 3.3 | 230 |
| Cn1cnnc1C1(F)CCN(c2c(C#N)cc(Cl)cc2-c2ccc(F)nc2)CC1 [Example 18] | 0.002 | 0.004 | 0.036 | 0.024 | 1 | 660 |
| Cn1cnnc1C1CCN(c2c(C#N)cc(C#N)cc2-c2ccc(F)nc2)CC1 [Example 21] | 0.005 | 0.025 | 0.324 | 0.28 | 39.1 | 11 |
| COc1cc(-c2cc(C(F)(F)F)cc(C#N)c2N2CCC(F)(c3nncn3C)CC2)cnn1 [Example 23] | 0.021 | 0.014 | 0.278 | 0.145 | 4.3 | 130 |
| Cn1cnnc1C1(F)CCN(c2c(C#N)cc(F)cc2-c2cnc3nn(C(C)(C)C)c(Cl)c3c2)CC1 [Example 24] | 0.002 | 0.001 | 0.016 | 0.013 | 1.7 | 460 |
| Cn1cnnc1C1(F)CCN(c2c(C#N)cc(F)cc2-c2cnc3nn(C(C)(C)C)cc3c2)CC1 [Example 25] | 0.002 | 0.001 | 0.023 | 0.01 | 9.7 | 75 |
| Nc1ncc(C2CCN(c3ncccc3-c3ccc(F)nc3)CC2)s1 [Prior art Compound 1094, reference compound] | 0.111 | 1.71 | – | 3.06 | – | – |
| Nc1nnc(C2CCN(c3ncccc3-c3ccc(F)nc3)CC2)s1 [Prior art Compound 1095, reference compound] | 0.013 | 0.26 | – | – | – | – |
| Cn1cnnc1C1CCN(c2ncccc2-c2cccnc2)CC1 [SEN180, reference compound] | – | 0.176 | – | – | – | – |

Further compounds by falling IC50 (QPCTL), results first:

| IC50 (QPCTL) [µM] | IC50 (QPCT) [µM] | IC50 [1] [µM] | IC50 [2] [µM] | efflux ratio [3] | Papp A→B [3] [nm/s] | SMILES |
| --- | --- | --- | --- | --- | --- | --- |
| 0.002 | 0.001 | 0.014 | 0.007 | 6.9 | 89 | Cn1cnnc1C1(F)CCN(c2c(C#N)cc(C(F)(F)F)cc2-c2cnc3nc(C(C)(C)C)nn3c2)CC1 [Example 2] |
| 0.002 | 0.004 | 0.017 | 0.012 | 1.3 | 405 | Cn1cnnc1C1(F)CCN(c2c(C#N)cc(C(F)(F)F)cc2-c2ccc(F)nc2)CC1 [Example 4] |
| 0.002 | 0.003 | 0.019 | 0.021 | 10.3 | 33 | Cn1cnnc1C1(F)CCN(c2c(C#N)cc(C(F)(F)F)cc2-c2ccnnc2)CC1 [Example 5] |
| 0.002 | 0.01 | 0.048 | 0.018 | 2.1 | 240 | Cn1cnnc1C1CCN(c2c(C#N)cc(F)cc2-c2ccc(F)nc2)CC1 [Example 7] |
| 0.002 | 0.002 | 0.096 | 0.027 | 3.6 | 91 | Cn1cnnc1C1CCN(c2c(C#N)ccc(OC(F)F)c2-c2ccc(F)nc2)CC1 [Example 13] |
| 0.002 | 0.011 | 0.124 | 0.024 | 6.7 | 96 | Cn1cnnc1C1CCN(c2c(-c3ccc(F)nc3)ccc(F)c2C#N)CC1 [Example 14] |
| 0.001 | 0.001 | 0.005 | 0.011 | 3.2 | 250 | Cn1cnnc1C1(F)CCN(c2c(C#N)cc(C(F)(F)F)cc2-c2cnc3nn(C(C)(C)C)cc3c2)CC1 [Example 1] |
| 0.001 | 0.003 | 0.044 | 0.011 | 4.4 | 85 | COc1ccc(C#N)c(N2CCC(c3nncn3C)CC2)c1-c1ccc(F)nc1 [Example 8] |
| 0.001 | 0.001 | 0.035 | 0.006 | 1.9 | 280 | COc1ccc(C#N)c(N2CCC(F)(c3nncn3C)CC2)c1-c1ccc(F)nc1 [Example 9] |
| 0.001 | 0.001 | 0.052 | 0.009 | 2.4 | 300 | CC(C)Oc1ccc(C#N)c(N2CCC(c3nncn3C)CC2)c1-c1ccc(F)nc1 [Example 10] |
| 0.001 | 0.002 | 0.044 | 0.043 | 3.2 | 280 | Cn1cnnc1C1CCN(c2c(C#N)ccc(OCC3CC3)c2-c2ccc(F)nc2)CC1 [Example 11] |
| 0.001 | 0.001 | 0.02 | 0.014 | 2.6 | 190 | Cn1cnnc1C1CCN(c2c(C#N)ccc(OCc3ccccc3)c2-c2ccc(F)nc2)CC1 [Example 12] |
| 0.001 | 0.001 | 0.017 | 0.005 | 21.2 | 25 | Cn1cnnc1C1CCN(c2c(C#N)cc(Cl)cc2-c2cnc3nn(C(C)(C)C)cc3c2)CC1 [Example 17] |
| 0.001 | 0.001 | 0.009 | 0.009 | 4.5 | 180 | Cn1cnnc1C1(F)CCN(c2c(C#N)cc(Cl)cc2-c2cnc3nn(C(C)(C)C)cc3c2)CC1 [Example 19] |
| 0.001 | 0.004 | 0.102 | 0.024 | 12.5 | 56 | COc1ccc(-c2ccc(F)nc2)c(N2CCC(c3nncn3C)CC2)c1C#N [Example 20] |
| 0.001 | 0.001 | 0.017 | 0.039 | 10.5 | 21 | Cn1cnnc1C1(F)CCN(c2c(C#N)cc(C(F)(F)F)cc2-c2cnc3nc(C(F)(F)F)cn3c2)CC1 [Example 22] |
| 0.001 | – | 0.036 | 0.073 | – | – | Cn1cnnc1C1(F)CCN(c2c(-c3cnc4nn(C(C)(C)C)cc4c3)ccc(OCCC(C)(C)O)c2C#N)CC1 [Example 34] |
